Data as given in patent US4522752A, “Retro-inverso analogues of the bradykinin potentiating peptide BPP5a and methods for their preparation” (E.N.I. Ente Nazionale Idrocarburi, priority 1983, dated 1985).
Like-named read-outs stand apart in the source and are kept apart here. Where a SMILES comes first, the peptide text is derived from it. [ ]: non-standard residue; d: D form. The star is where a group is joined. Hyp = O=C(O)[C@@H]1C[C@@H](O)CN1; pGlu = O=C1CC[C@@H](C(=O)O)N1; Bn = c1ccc(C*)cc1

What was measured:
[1] = molecular target: T1, angiotensin conversion enzyme (Oryctolagus cuniculus, UniProt P12822); experiment: Inhibition of the angiotensin conversion enzyme in vitro (method of Cushman and Cheung); assay type: biochemical; conditions: enzyme isolated from rabbit lungs, read-out: I50
T1 construct: the enzyme isolated from rabbit lungs; from tissue; host or cells: rabbit lung
T1 sequence (P12822 34-1310): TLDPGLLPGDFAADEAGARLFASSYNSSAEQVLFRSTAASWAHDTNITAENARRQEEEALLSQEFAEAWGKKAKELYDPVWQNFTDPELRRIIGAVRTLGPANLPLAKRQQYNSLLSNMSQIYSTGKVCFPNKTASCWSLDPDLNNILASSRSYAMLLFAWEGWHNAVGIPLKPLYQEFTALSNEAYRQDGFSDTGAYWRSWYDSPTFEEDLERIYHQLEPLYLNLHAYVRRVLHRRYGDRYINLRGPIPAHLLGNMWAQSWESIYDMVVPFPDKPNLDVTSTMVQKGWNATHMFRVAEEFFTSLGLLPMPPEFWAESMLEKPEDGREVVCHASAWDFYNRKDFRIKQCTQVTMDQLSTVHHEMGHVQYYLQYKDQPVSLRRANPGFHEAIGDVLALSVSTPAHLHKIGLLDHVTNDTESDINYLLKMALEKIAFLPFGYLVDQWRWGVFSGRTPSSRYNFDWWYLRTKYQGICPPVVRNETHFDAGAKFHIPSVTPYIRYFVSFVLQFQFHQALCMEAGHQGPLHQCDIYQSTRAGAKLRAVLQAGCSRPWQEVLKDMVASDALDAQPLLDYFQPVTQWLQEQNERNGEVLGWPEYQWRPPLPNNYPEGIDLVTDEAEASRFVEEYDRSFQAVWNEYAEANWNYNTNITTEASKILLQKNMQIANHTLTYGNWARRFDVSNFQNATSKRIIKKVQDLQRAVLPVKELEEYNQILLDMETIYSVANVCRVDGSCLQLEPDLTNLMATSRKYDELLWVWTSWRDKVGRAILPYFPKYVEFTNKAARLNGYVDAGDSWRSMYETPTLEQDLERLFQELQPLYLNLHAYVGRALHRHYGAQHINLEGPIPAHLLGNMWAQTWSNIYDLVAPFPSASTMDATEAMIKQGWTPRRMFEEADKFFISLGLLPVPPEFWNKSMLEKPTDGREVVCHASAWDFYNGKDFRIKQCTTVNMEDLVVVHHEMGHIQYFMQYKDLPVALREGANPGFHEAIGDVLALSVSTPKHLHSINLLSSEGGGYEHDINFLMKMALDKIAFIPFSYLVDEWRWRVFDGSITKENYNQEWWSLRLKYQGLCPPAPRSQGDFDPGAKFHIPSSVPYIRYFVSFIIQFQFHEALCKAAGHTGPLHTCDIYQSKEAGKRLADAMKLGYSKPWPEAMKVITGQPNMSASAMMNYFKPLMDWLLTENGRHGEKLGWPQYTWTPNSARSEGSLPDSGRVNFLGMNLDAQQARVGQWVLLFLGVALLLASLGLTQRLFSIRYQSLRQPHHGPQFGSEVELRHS
Experimental: The inhibition of the angiotensin conversion enzyme by the compounds of general formula (I) is measured in vitro by the enzyme isolated from rabbit lungs by the method of Cushman and Cheung [Biochem. Pharmacol., 20, 1637 (1971)].

[2] = molecular target: T1, angiotensin conversion enzyme; conditions: literature value given in Table 1; read-out: I50 (lit.); cited from earlier work
[3] = oral administration; needs intravenous administration; cited from earlier work

Row | SMILES | IC50 [1] | IC50 [2] | oral activity [3]
1 | C[C@H](NC(=O)[C@H](Cc1ccccc1)NC(=O)[C@H](CCCCN)NC(=O)[C@@H]1CCC(=O)N1)C(=O)N1C[C@H](OCc2ccccc2)C[C@H]1C(=O)O [Glp--Lys--Phe--Ala--Hyp(OBz), pyroglutamyl-lysyl-phenylalanyl-alanyl-(4-benzyloxy)-proline] ([pGlu]KFA[Hyp](Bn)-OH) | 0.11 µM |  | 
2 | C[C@H](NC(=O)[C@H](Cc1ccccc1)NC(=O)[C@H](CCCCN)NC(=O)[C@@H]1CCC(=O)N1)C(=O)N1CCC[C@H]1C(=O)O [Glp--Lys--Phe--Ala--Pro] ([pGlu]KFAP-OH) | 0.13 µM | 0.07 µM | 
3 | C[C@H](NC(=O)C(Cc1ccccc1)C(=O)N[C@H](CCCCN)C(=O)NC1CCC(=O)N1)C(=O)N1CCC[C@H]1C(=O)O (stereo partly drawn) [gGlp--D-Lys--mPhe--Ala--Pro, gem-pyroglutamyl-D-lysyl-(R,S)-malonyl-(2-benzyl)-alanyl-proline] | 85 µM |  | 
4 | CC[C@H](C)[C@H](NC(=O)[C@H](CCC(N)=O)NC(=O)[C@@H]1CCCN1C(=O)[C@H](CCCNC(=N)N)NC(=O)[C@@H]1CCCN1C(=O)[C@H](Cc1c[nH]c2ccccc12)NC(=O)[C@@H]1CCC(=O)N1)C(=O)N1CCC[C@H]1C(=O)N1CCC[C@H]1C(=O)O [teprotide] |  |  | inactive orally
